Reference: the supplement of paper PMC13380429

Legend:
Conditions in all cases: 72 h
U2OS [1] = assay: cell viability relative to DMSO; higher = less toxic
Caco-2 [2] = assay: as above
Vero E6 [3] = assay: as above
Calu-3 [4] = assay: as above
HepG2 [5] = assay: as above
U2OS [6] = assay: drug sensitivity score (DSS) for viability; higher = more toxic; extreme values may be limits of the assay
Caco-2 [7] = assay: as above
Vero E6 [8] = assay: as above
Calu-3 [9] = assay: as above
HepG2 [10] = assay: as above
U2OS [11] = assay: relative viability EC50 (midpoint between 100% and the lowest measured viability); higher = less toxic
Caco-2 [12] = assay: as above
Vero E6 [13] = assay: as above
Calu-3 [14] = assay: as above
HepG2 [15] = assay: as above

Row | Structure (SMILES) | cell viability (U2OS [1]; 1 nM) [%] | cell viability (U2OS [1]; 10 nM) [%] | cell viability (U2OS [1]; 100 nM) [%] | cell viability (U2OS [1]; 1000 nM) [%] | cell viability (U2OS [1]; 10000 nM) [%] | cell viability (Caco-2 [2]; 1 nM) [%] | cell viability (Caco-2 [2]; 10 nM) [%] | cell viability (Caco-2 [2]; 100 nM) [%] | cell viability (Caco-2 [2]; 1000 nM) [%] | cell viability (Caco-2 [2]; 10000 nM) [%] | cell viability (Vero E6 [3]; 1 nM) [%] | cell viability (Vero E6 [3]; 10 nM) [%] | cell viability (Vero E6 [3]; 100 nM) [%] | cell viability (Vero E6 [3]; 1000 nM) [%] | cell viability (Vero E6 [3]; 10000 nM) [%] | cell viability (Calu-3 [4]; 1 nM) [%] | cell viability (Calu-3 [4]; 10 nM) [%] | cell viability (Calu-3 [4]; 100 nM) [%] | cell viability (Calu-3 [4]; 1000 nM) [%] | cell viability (Calu-3 [4]; 10000 nM) [%] | cell viability (HepG2 [5]; 1 nM) [%] | cell viability (HepG2 [5]; 10 nM) [%] | cell viability (HepG2 [5]; 100 nM) [%] | cell viability (HepG2 [5]; 1000 nM) [%] | cell viability (HepG2 [5]; 10000 nM) [%] | drug sensitivity score (U2OS [6]) | drug sensitivity score (Caco-2 [7]) | drug sensitivity score (Vero E6 [8]) | drug sensitivity score (Calu-3 [9]) | drug sensitivity score (HepG2 [10]) | relative viability EC50 (U2OS [11]) [µM] | relative viability EC50 (Caco-2 [12]) [µM] | relative viability EC50 (Vero E6 [13]) [µM] | relative viability EC50 (Calu-3 [14]) [µM] | relative viability EC50 (HepG2 [15]) [µM]
1 | CCNC(=O)CCC/C=C\C[C@@H]1[C@@H](/C=C/[C@@H](O)CCc2ccccc2)[C@H](O)C[C@@H]1O [bimatoprost] | 102 | 93.3 | 103 | 96.4 | 107 | 97.5 | 89.8 | 106 | 92.2 | 101 | 97.7 | 105 | 96.1 | 100 | 106 | 113 | 97.6 | 101 | 100 | 101 | 88.6 | 93 | 95.1 | 107 | 105 | 0 | 0 | 0 | 0 | 0 | > 10 | > 10 | > 10 | > 10 | > 10
2 | CCN[C@H]1CN(CCCOC)S(=O)(=O)c2sc(S(N)(=O)=O)cc21 [brinzolamide] | 96.6 | 95.4 | 102 | 106 | 99.9 | 89.1 | 95.2 | 99.3 | 104 | 106 | 94.4 | 99.7 | 96.2 | 85.9 | 102 | 96.2 | 91.8 | 101 | 112 | 102 | 100 | 118 | 101 | 110 | 112 | 0 | 0 | 0 | 0 | 0 | > 10 | > 10 | > 10 | > 10 | > 10
3 | C=CCN1C[C@H](C(=O)N(CCCN(C)C)C(=O)NCC)C[C@@H]2c3cccc4[nH]cc(c34)C[C@H]21 [cabergoline] | 101 | 100 | 96.5 | 101 | 103 | 108 | 95.2 | 83 | 89 | 89.5 | 103 | 98 | 88.9 | 96.1 | 95.7 | 106 | 99.7 | 97.1 | 107 | 99.4 | 89.3 | 95.2 | 106 | 92.8 | 90.7 | 0 | 4 | 0 | 0 | 0 | > 10 | > 10 | > 10 | > 10 | > 10
4 | C=C1CC[C@H](O)C/C1=C/C=C1\CCC[C@]2(C)[C@@H]([C@H](C)CCCC(C)(C)O)CC[C@@H]12 [calcifediol] | 106 | 97.5 | 105 | 98.1 | 95 | 107 | 90.2 | 107 | 92.3 | 91.8 | 98.9 | 95 | 98.1 | 97.3 | 97 | 98.2 | 91.4 | 78.8 | 103 | 107 | 92.6 | 103 | 97.1 | 103 | 101 | 0 | 0 | 0 | 0 | 0 | > 10 | > 10 | > 10 | > 10 | > 10
5 | CO/N=C(\C(=O)N[C@@H]1C(=O)N2C(C(=O)OCOC(=O)C(C)(C)C)=C(/C=C\c3scnc3C)CS[C@H]12)c1csc(N)n1 [cefditoren-pivoxil] | 103 | 108 | 103 | 96.6 | 100 | 104 | 97.5 | 105 | 99.1 | 90.9 | 94.7 | 98.9 | 94.2 | 92.7 | 91.9 | 96.9 | 105 | 86.3 | 101 | 106 | 91 | 99.7 | 97.3 | 103 | 84.2 | 0 | 0 | 0 | 0 | 0.2 | > 10 | > 10 | > 10 | > 10 | > 10
6 | CO[C@@]1(NC(=O)C2SC(=C(C(N)=O)C(=O)O)S2)C(=O)N2C(C(=O)O)=C(CSc3nnnn3C)CS[C@@H]21 (stereo not given in full) [cefotetan] | 98.3 | 99.6 | 98.5 | 99.8 | 96.1 | 92.4 | 95.3 | 93.6 | 95.9 | 101 | 105 | 104 | 103 | 98.2 | 99.9 | 109 | 94.1 | 108 | 105 | 103 | 108 | 89.7 | 99.1 | 100 | 103 | 0 | 0 | 0 | 0 | 0 | > 10 | > 10 | > 10 | > 10 | > 10
7 | CC(=O)OCC1=C(C(=O)O)N2C(=O)[C@@H](NC(=O)CSc3ccncc3)[C@H]2SC1 [cephapirin] | 96.6 | 99.6 | 93.8 | 94.6 | 104 | 93.9 | 109 | 94.8 | 97.6 | 96.1 | 95.6 | 98 | 95.6 | 97.1 | 102 | 98.9 | 92.3 | 90.9 | 101 | 97.7 | 104 | 91.1 | 102 | 93.3 | 103 | 0 | 0 | 0 | 0 | 0 | > 10 | > 10 | > 10 | > 10 | > 10
